Consider 22 compounds from ChEMBL document CHEMBL2384946 (Bioorg Med Chem, 2013).

For experiment [1], the target named is D(3) dopamine receptor (Rattus norvegicus, UniProt P19020). The experiment can be described thus: Displacement of [3H]spiperone from rat cloned dopamine D3 receptor expressed in HEK293 cells after 1 hr. In kind it is cell-based.
The species named for another experiment is Rattus norvegicus. Briefly: Selectivity ratio of Ki for rat cloned dopamine D2L receptor to Ki for rat cloned dopamine D3 receptor.
The target in experiment [2] is D(2) dopamine receptor (Rattus norvegicus, UniProt P61169). Briefly: Displacement of [3H]spiperone from rat cloned dopamine D2L receptor expressed in HEK293 cells after 1 hr. In kind it is cell-based. (Displacement assays read how much labelled ligand stays bound in the presence of the test substance.)
Sequence of D(2) dopamine receptor (Rattus norvegicus, UniProt P61169) (P61169 whole entry): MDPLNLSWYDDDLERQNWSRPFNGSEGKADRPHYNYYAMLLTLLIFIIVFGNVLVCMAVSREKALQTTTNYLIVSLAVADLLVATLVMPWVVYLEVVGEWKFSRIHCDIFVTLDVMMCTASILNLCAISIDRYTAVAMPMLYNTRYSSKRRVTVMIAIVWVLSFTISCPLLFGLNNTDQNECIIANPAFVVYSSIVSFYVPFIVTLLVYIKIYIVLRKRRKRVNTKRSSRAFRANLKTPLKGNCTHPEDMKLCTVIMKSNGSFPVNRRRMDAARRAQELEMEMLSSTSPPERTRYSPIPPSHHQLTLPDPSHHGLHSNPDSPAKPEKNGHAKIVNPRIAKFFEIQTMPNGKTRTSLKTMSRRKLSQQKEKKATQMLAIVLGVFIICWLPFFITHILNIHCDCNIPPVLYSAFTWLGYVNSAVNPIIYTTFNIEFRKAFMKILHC
In experiment [3] the target is T1, D(2) dopamine receptor (Homo sapiens, UniProt P14416). Briefly: Agonist activity at human dopamine D2L receptor expressed in CHO cells assessed as stimulation of [35S]GTPgammaS binding after 60 mins by scintillation counting analysis relative to dopamine. Type of experiment: functional, cell-based. For orientation: GTPγS resists hydrolysis and so accumulates on activated G proteins.
T1 sequence (P14416 whole entry): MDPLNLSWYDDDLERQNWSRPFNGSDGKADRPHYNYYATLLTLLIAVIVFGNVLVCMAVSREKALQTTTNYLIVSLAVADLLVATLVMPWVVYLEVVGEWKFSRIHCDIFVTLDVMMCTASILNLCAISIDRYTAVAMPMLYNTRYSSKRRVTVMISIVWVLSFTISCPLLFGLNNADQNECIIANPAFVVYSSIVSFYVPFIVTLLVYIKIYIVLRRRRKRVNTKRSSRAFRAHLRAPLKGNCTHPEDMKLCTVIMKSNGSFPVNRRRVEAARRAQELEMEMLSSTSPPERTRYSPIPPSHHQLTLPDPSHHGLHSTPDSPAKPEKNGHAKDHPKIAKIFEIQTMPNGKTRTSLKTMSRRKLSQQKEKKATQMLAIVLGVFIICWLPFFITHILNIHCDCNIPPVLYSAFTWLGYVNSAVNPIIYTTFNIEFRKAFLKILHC

The target of experiment [4] is D(3) dopamine receptor (Homo sapiens, UniProt P35462). The experiment can be described thus: Agonist activity at human dopamine D3 receptor expressed in CHO cells assessed as stimulation of [35S]GTPgammaS binding after 60 mins by scintillation counting analysis. Type of experiment: functional, cell-based.
Sequence of D(3) dopamine receptor (Homo sapiens, UniProt P35462) (P35462 whole entry): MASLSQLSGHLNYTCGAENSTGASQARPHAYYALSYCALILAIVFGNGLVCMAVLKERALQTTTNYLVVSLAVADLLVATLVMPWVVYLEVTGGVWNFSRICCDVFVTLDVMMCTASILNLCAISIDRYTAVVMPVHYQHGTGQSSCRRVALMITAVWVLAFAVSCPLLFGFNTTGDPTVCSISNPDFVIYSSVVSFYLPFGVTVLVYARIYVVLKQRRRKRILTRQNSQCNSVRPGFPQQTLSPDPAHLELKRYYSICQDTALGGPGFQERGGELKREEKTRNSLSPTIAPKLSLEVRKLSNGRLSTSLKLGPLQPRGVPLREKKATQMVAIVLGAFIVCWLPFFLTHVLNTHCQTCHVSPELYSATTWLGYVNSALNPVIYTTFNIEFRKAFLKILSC
Experiment [5] addresses T1, D(2) dopamine receptor. The experiment can be described thus: Agonist activity at human dopamine D2L receptor expressed in CHO cells assessed as stimulation of [35S]GTPgammaS binding after 60 mins by scintillation counting analysis. In kind it is functional, cell-based.

Sequence of D(3) dopamine receptor (Rattus norvegicus, UniProt P19020) (P19020 whole entry): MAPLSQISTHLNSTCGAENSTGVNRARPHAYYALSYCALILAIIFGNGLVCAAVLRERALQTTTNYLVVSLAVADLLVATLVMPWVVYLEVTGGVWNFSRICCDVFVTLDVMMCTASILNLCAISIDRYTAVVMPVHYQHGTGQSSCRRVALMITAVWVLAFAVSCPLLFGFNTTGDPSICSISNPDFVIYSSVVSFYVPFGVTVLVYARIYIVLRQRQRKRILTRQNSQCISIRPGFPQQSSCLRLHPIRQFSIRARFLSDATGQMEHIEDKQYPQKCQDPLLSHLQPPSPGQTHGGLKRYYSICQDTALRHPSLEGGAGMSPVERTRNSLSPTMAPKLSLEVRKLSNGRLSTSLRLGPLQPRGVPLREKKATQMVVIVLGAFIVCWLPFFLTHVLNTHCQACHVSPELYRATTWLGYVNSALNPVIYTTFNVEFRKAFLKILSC

With `CCCN(CCN1CCN(c2ccccc2)CC1)C1CCc2ccc(NS(=O)(=O)c3ccc(C)cc3)cc2C1` (centres undefined), the Ki at D(3) dopamine receptor [1] is 3.69 nM; on D(2) dopamine receptor [2], 39.2 nM. Further, in the experiment listed under Rattus norvegicus, the Ratio Ki stood at 10.6.
Regarding `CCCN(CCN1CCN(c2ccccc2)CC1)C1CCc2ccc(N)cc2C1` (racemic), the figures for the inhibitory constant (Ki) on D(3) dopamine receptor [1] and at D(2) dopamine receptor [2] were 22.2 nM and 638 nM, respectively.
`CCCN(CCN1CCN(c2ccccc2)CC1)[C@@H]1CCc2ccc(OS(=O)(=O)c3ccc(OC)cc3)cc2C1`: the Ki was 26.9 nM on D(3) dopamine receptor [1] and 1080 nM on D(2) dopamine receptor [2]. Also, the Ratio Ki in the experiment listed under Rattus norvegicus worked out at 40.
In the case of `CCCN(CCN1CCN(c2ccccc2)CC1)[C@H]1CCc2ccc(N)cc2C1`, the results for the Ki at D(3) dopamine receptor [1] and on D(2) dopamine receptor [2] were 45.5 nM and 2710 nM, respectively.
Regarding `CCCN(CCN1CCN(c2ccccc2)CC1)C1CCc2ccc(NC(=O)c3ccccc3)cc2C1` (centres undefined), the Ki on D(3) dopamine receptor [1] came to 109 nM; on D(2) dopamine receptor [2], 624 nM. Also, the Ratio Ki in the experiment filed under Rattus norvegicus was 5.72.
`CCCN(CCN1CCN(c2ccccc2)CC1)C1CCc2cc3cc[nH]c3cc2C1` (centres undefined): the Ki was 10.7 nM on D(3) dopamine receptor [1] and 127 nM on D(2) dopamine receptor [2]. For the same compound, the Ratio Ki in the experiment listed under Rattus norvegicus is 11.9.
As for `CCCN(CCN1CCN(c2ccccc2)CC1)C1CCc2ccc(NS(=O)(=O)c3ccc(OC)cc3)cc2C1` (racemic), the values for the Ki at D(3) dopamine receptor [1] and at D(2) dopamine receptor [2] were 2.22 nM and 64.9 nM, respectively.
Regarding `CCCN(CCN1CCN(c2ccccc2)CC1)C1CCc2ccc(NC(C)=O)cc2C1` (centres undefined), the figures for the Ki on D(3) dopamine receptor [1] and at D(2) dopamine receptor [2] were 174 nM and 1300 nM, respectively. Besides, in the experiment filed under Rattus norvegicus, the Ratio Ki came to 7.44.
Taken in the same sequence, the figures for `CCCN(CCN1CCN(c2ccccc2OC)CC1)C1CCc2cc3[nH]cnc3cc2C1` (centres undefined) were 19.7 nM, 443 nM and 22.5.
Regarding `CCCN(CCN1CCN(C(=O)c2cc3ccccc3[nH]2)CC1)C1CCc2nc(N)sc2C1` (centres undefined), the Ki at D(3) dopamine receptor [1] came out at 1.84 nM; at D(2) dopamine receptor [2], 1070 nM. Besides, the Emax at D(2) dopamine receptor [3] was determined as 101%. For the same compound, the EC50 on D(3) dopamine receptor [4] (read-out: EC50) turned out to be 0.26 nM.
Regarding `CCCN(CCN1CCN(c2ccccc2)CC1)C1CCc2cc3[nH]cnc3cc2C1` (centres undefined), the inhibition constant (Ki) at D(3) dopamine receptor [1] came out at 60 nM; at D(2) dopamine receptor [2], 1280 nM. The Ratio Ki in the experiment listed under Rattus norvegicus was found to be 21.3.
`CCCN(CCN1CCN(c2nccc3ccccc23)CC1)[C@H]1CCc2nc(N)sc2C1`: the Ratio Ki in the experiment listed under Rattus norvegicus turned out to be 121.
As to `CCCN(CCN1CCN(c2ccccc2)CC1)[C@@H]1CCc2ccc(NS(=O)(=O)c3ccc(OC)cc3)cc2C1`, the results for the Ki on D(3) dopamine receptor [1] and on D(2) dopamine receptor [2] were 2.32 nM and 101 nM, respectively. In addition, the EC50 result at D(2) dopamine receptor [5] (cho) and on D(3) dopamine receptor [4] (cho) was “Not Active” throughout.
In the case of `CCCN(CCN1CCN(c2ccccc2)CC1)[C@@H]1CCc2ccc(N)cc2C1`, the Ki came to 20.2 nM at D(3) dopamine receptor [1] and 601 nM at D(2) dopamine receptor [2]. Also, the results for the concentration for a half-maximal effect (EC50) at D(2) dopamine receptor [5] (read-out: EC50) and on D(3) dopamine receptor [4] (read-out: EC50) were 179 nM and 30.3 nM, respectively. For the same compound, the Emax on D(2) dopamine receptor [3] was 36.8%.
With `CCCN(CCN1CCN(c2ccccc2)CC1)C1CCc2ccc(NS(=O)(=O)c3ccc(Cl)cc3)cc2C1` (centres undefined), the Ki at D(3) dopamine receptor [1] is 4.13 nM; on D(2) dopamine receptor [2] it was 72.4 nM. In addition, the Ratio Ki in the experiment listed under Rattus norvegicus is 17.5.
On to `CCCN(CCN1CCN(c2ccccc2)CC1)[C@H]1CCc2c(cccc2OS(=O)(=O)c2ccc(OC)cc2)C1`, for which the Ki at D(3) dopamine receptor [1] turned out to be 17.6 nM; at D(2) dopamine receptor [2], 497 nM. Further, the EC50 entry at D(2) dopamine receptor [5] (cho) and on D(3) dopamine receptor [4] (cho) was “Not Active” in each case.
Regarding `CCCN(CCN1CCN(c2ccccc2)CC1)C1CCc2ccc3nc[nH]c3c2C1` (centres undefined), the inhibition constant Ki is 54.1 nM on D(3) dopamine receptor [1] and 520 nM on D(2) dopamine receptor [2]. The Ratio Ki in the experiment listed under Rattus norvegicus was 9.61.
Take `CCCN(CCN1CCN(c2ccccc2)CC1)C1CCc2cc3[nH]c(N)nc3cc2C1` (centres undefined): in the experiment listed under Rattus norvegicus, the Ratio Ki was 8.89.
Turning to `CCCN(CCN1CCN(c2ccccc2)CC1)C1CCc2ccc(NS(=O)(=O)c3ccc(C(F)(F)F)cc3)cc2C1` (centres undefined), the Ki on D(3) dopamine receptor [1] is 8.64 nM; on D(2) dopamine receptor [2] it was 91.2 nM. In the experiment filed under Rattus norvegicus, the Ratio Ki is 10.6.
In the same order, the values of `CCCN(CCN1CCN(c2ccccc2OC)CC1)C1CCc2cc3[nH]c(=S)[nH]c3cc2C1` (centres undefined) are 112 nM, 230 nM and 2.05.
On to `CCCN(CCN1CCN(c2ccccc2OC)CC1)C1CCc2cc3[nH]c(=O)[nH]c3cc2C1` (centres undefined), for which the inhibition constant (Ki) is 195 nM on D(3) dopamine receptor [1] and 417 nM at D(2) dopamine receptor [2]. Further, in the experiment filed under Rattus norvegicus, the Ratio Ki is 2.14.
Taken in the same sequence, the figures for `CCCN(CCN1CCN(c2ccccc2)CC1)[C@H]1CCc2c(cccc2OS(=O)(=O)c2ccc(C)cc2)C1` were 32 nM, 632 nM and 19.8.

Usually Ki stands for the equilibrium dissociation constant of an inhibitor or competing ligand from its target. For orientation: Emax means the maximal effect, on the per cent scale that the assay sets. Broadly, the EC50 is the concentration needed to bring the measured effect to its halfway point.
